EPA's ToxRefDB 2

Experiments:
[1] = tested on: rat; conditions: Combined chronic toxicity/carcinogenicity; sprague dawley; Oral; Feed; dose end: 104 week; group: systemic; systemic / in life observation / clinical signs / convulsions
[2] = tested on: rat; conditions: Subchronic oral toxicity in rodents, sprague dawley, Feed, dose end: 90 day, group: systemic, systemic / in life observation / body weight / body weight + systemic / in life observation / body weight / body weight gain + systemic / in…
[3] = tested on: dog; conditions: Subchronic oral toxicity in nonrodent, beagle, Feed, dose end: 64 day, group: systemic, systemic / clinical chemistry / cytochrome p450, nos / cytochrome p450, nos + systemic / clinical chemistry / o-demethylase / o-demethylase…
[4] = tested on: rat; conditions: Combined chronic toxicity/carcinogenicity, fischer, Oral, Feed, dose end: 24 month, group: systemic
[5] = tested on: mouse; conditions: Carcinogenicity, other, Oral, Feed, dose end: 24 month, group: systemic
[6] = tested on: rabbit; conditions: Prenatal developmental toxicity study, himalayan, Oral, Gavage/Intubation, dose end: 28 GD
[7] = tested on: rat; conditions: Subchronic oral toxicity in rodents, wistar, Feed, dose end: 90 day, group: systemic, systemic / pathology microscopic / stomach / hyperplasia + systemic / pathology microscopic / stomach / infiltration cellular + systemic / …
[8] = tested on: rat; conditions: Multigenerational reproductive toxicity study, wistar, Oral, Feed, dose end: 2 generation
[9] = tested on: mouse; conditions: Subchronic oral toxicity in rodents, b6c3f1, Feed, dose end: 90 day, group: systemic, systemic / in life observation / body weight / body weight + systemic / in life observation / body weight / body weight gain + systemic / in…
[10] = tested on: rat; conditions: Prenatal developmental toxicity study, sprague dawley, Oral, Gavage/Intubation, dose end: 18 GD
[11] = tested on: rabbit; conditions: Prenatal developmental toxicity study; himalayan; Oral; Gavage/Intubation; dose end: 18 GD; group: maternal; systemic / in life observation / body weight / body weight gain + systemic / in life observation / food consumption / food consumption
[12] = tested on: rabbit; conditions: Prenatal developmental toxicity study, himalayan, Oral, Gavage/Intubation, dose end: 18 GD
[13] = tested on: dog; conditions: Sub-acute repeat dose toxicity, beagle, Oral, Gavage/Intubation, dose end: 4 week, group: systemic
[14] = tested on: mouse; conditions: Subchronic oral toxicity in rodents, cd1, Gavage/Intubation, dose end: 90 day, group: systemic
[15] = tested on: rat; conditions: Prenatal developmental toxicity study, sprague dawley, Oral, Gavage/Intubation, dose end: 18 GD; remark: listed apart in the source
[16] = tested on: rat; conditions: Sub-acute repeat dose toxicity, sprague dawley, Oral, Gavage/Intubation, dose end: 4 week, group: systemic
[17] = systemic / organ weight / kidney / relative to body weight
[18] = systemic / hematology / leukocyte (wbc) count differential / leukocyte (wbc) + systemic / hematology / mean corpuscular hemoglobin (mch) / …
[19] = systemic / hematology / mean corpuscular hemoglobin concentration (mchc) / mean corpuscular hemoglobin concentration (mchc)
[20] = group: developmental, developmental / developmental malformation / bone / absent + developmental / developmental malformation / bone / enlarged fontanel + …
[21] = group: maternal, reproductive / reproductive performance / aborted / aborted + systemic / in life observation / body weight / body weight + systemic / in …
[22] = group: parental, systemic / pathology microscopic / stomach / vacuolization
[23] = group: reproductive, reproductive / offspring survival early / birth index / live birth index
[24] = group: developmental, systemic / in life observation / body weight / fetal weight
[25] = group: maternal, systemic / in life observation / body weight / body weight + systemic / in life observation / food consumption / food consumption
[26] = group: developmental, developmental / developmental malformation / bone / delayed ossification + developmental / developmental malformation / lung / [other]
[27] = group: developmental, developmental / developmental malformation / bone / delayed ossification + developmental / developmental malformation / lung / [other] + …
[28] = systemic / clinical chemistry / alkaline phosphatase (alp/alk) / alkaline phosphatase (alp/alk) + systemic / hematology / blood clotting / …
[29] = systemic / hematology / blood clotting / blood clotting - prothrombin time + systemic / hematology / reticulocyte / reticulocyte
[30] = systemic / in life observation / body weight / body weight + systemic / organ weight / brain / relative to body weight + systemic / organ …
[31] = systemic / in life observation / body weight / body weight + systemic / organ weight / liver / relative to body weight + systemic / …
[32] = group: developmental, developmental / developmental malformation / bone / incomplete ossification
[33] = group: maternal, systemic / in life observation / body weight / body weight + systemic / in life observation / food consumption / food consumption + systemic…
[34] = systemic / hematology / hematocrit (hct) / hematocrit (hct) + systemic / hematology / hemoglobin (hgb) / hemoglobin (hgb)
[35] = systemic / hematology / hematocrit (hct) / hematocrit (hct) + systemic / hematology / hemoglobin (hgb) / hemoglobin (hgb) + systemic / in …

N#Cc1nn(-c2c(Cl)cc(C(F)(F)F)cc2Cl)c(N)c1C(F)(F)F [Fipronil-desulfinyl]
LEL [1]: 0.032 mg/kg/day
LOAEL [1]: 0.032 mg/kg/day
NEL [1]: < 0.032 mg/kg/day
NOAEL [1]: < 0.032 mg/kg/day
LEL [2]: 0.594 mg/kg/day
LOAEL [2]: 0.594 mg/kg/day
NEL [2]: 0.177 mg/kg/day
NOAEL [2]: 0.177 mg/kg/day

CCCOc1nn(C(=O)[N-]S(=O)(=O)c2ccccc2C(=O)OC)c(=O)n1C.[Na+] [Propoxycarbazone-sodium]
LEL [3]: 1180 mg/kg/day
LOAEL [3]: > 1180 mg/kg/day
NEL [3]: 286 mg/kg/day
NOAEL [3]: ≥ 1180 mg/kg/day
LOAEL ([4]; systemic / in life observation / body weight / body weight gain + systemic / urinalysis / ph / ph): 459 mg/kg/day
NOAEL ([4]; systemic / in life observation / body weight / body weight gain + systemic / urinalysis / ph / ph + systemic / pathology gross / full gross …): 43 mg/kg/day
LEL [4, 17]: 43 mg/kg/day
NEL [4, 17]: < 43 mg/kg/day
LOAEL [5, 18]: > 1880 mg/kg/day
NOAEL [5, 18]: ≥ 1880 mg/kg/day
LEL [5, 19]: 74.6 mg/kg/day
NEL [5, 19]: < 74.6 mg/kg/day
LEL [6, 20]: 1000 mg/kg/day
LOAEL [6, 20]: > 1000 mg/kg/day
NEL [6, 20]: 500 mg/kg/day
NOAEL [6, 20]: ≥ 1000 mg/kg/day
LEL [6, 21]: 500 mg/kg/day
LOAEL [6, 21]: 500 mg/kg/day
NEL [6, 21]: 100 mg/kg/day
NOAEL [6, 21]: 100 mg/kg/day
LEL [7]: 1510 mg/kg/day
LOAEL [7]: 1510 mg/kg/day
NEL [7]: 286 mg/kg/day
NOAEL [7]: 286 mg/kg/day
LEL [8, 22]: 323 mg/kg/day
LOAEL [8, 22]: 323 mg/kg/day
NEL [8, 22]: 79.6 mg/kg/day
NOAEL [8, 22]: 79.6 mg/kg/day
LEL [8, 23]: 1310 mg/kg/day
LOAEL [8, 23]: 1310 mg/kg/day
NEL [8, 23]: 323 mg/kg/day
NOAEL [8, 23]: 323 mg/kg/day
LEL [9]: 860 mg/kg/day
LOAEL [9]: 860 mg/kg/day
NEL [9]: 205 mg/kg/day
NOAEL [9]: 205 mg/kg/day

OC12N=C(c3ccccc3)SC1Cc1cc(Cl)ccc12 (centres undefined) [HMR1426]
LEL [10, 24]: 1000 mg/kg/day
LOAEL [10, 24]: 1000 mg/kg/day
NEL [10, 24]: 500 mg/kg/day
NOAEL [10, 24]: 500 mg/kg/day
LEL [10, 25]: 500 mg/kg/day
LOAEL [10, 25]: 500 mg/kg/day
NEL [10, 25]: < 500 mg/kg/day
NOAEL [10, 25]: < 500 mg/kg/day
LEL [11]: 500 mg/kg/day
LOAEL [11]: > 1000 mg/kg/day
NEL [11]: < 500 mg/kg/day
NOAEL [11]: ≥ 1000 mg/kg/day
LEL [12, 26]: 62.5 mg/kg/day
NEL [12, 26]: < 62.5 mg/kg/day
LOAEL [12, 27]: > 1000 mg/kg/day
NOAEL [12, 27]: ≥ 1000 mg/kg/day
LEL [12, 25]: 62.5 mg/kg/day
LOAEL [12, 25]: > 1000 mg/kg/day
NEL [12, 25]: < 62.5 mg/kg/day
NOAEL [12, 25]: ≥ 1000 mg/kg/day
LOAEL [13, 28]: > 630 mg/kg/day
NOAEL [13, 28]: ≥ 630 mg/kg/day
LEL [13, 29]: 63 mg/kg/day
NEL [13, 29]: < 63 mg/kg/day
LOAEL [14, 30]: > 1600 mg/kg/day
NOAEL [14, 30]: ≥ 1600 mg/kg/day
LEL [14, 31]: 400 mg/kg/day
NEL [14, 31]: < 400 mg/kg/day
LEL [15, 32]: 315 mg/kg/day
LOAEL [15, 32]: 315 mg/kg/day
NEL [15, 32]: 100 mg/kg/day
NOAEL [15, 32]: 100 mg/kg/day
LEL [15, 25]: 100 mg/kg/day
NEL [15, 25]: < 100 mg/kg/day
LOAEL [15, 33]: 315 mg/kg/day
NOAEL [15, 33]: 100 mg/kg/day
LEL [16, 34]: 31.5 mg/kg/day
NEL [16, 34]: < 31.5 mg/kg/day
LOAEL [16, 35]: 315 mg/kg/day
NOAEL [16, 35]: 31.5 mg/kg/day
